Assay results published in the NIST ThermoML archive (doi:10.1016/j.jct.2015.02.009).
± gives the expanded uncertainty stated by the source.

Columns and labels:
[1] = for molar entropy: 101.33 kPa, Vacuum adiabatic calorimetry; for Triple point temperature: Adiabatic calorimetry
[2] = molar heat capacity at saturation pressure; settings: Vacuum adiabatic calorimetry
[3] = Molar enthalpy of transition or fusion; settings: Crystal 1; Adiabatic calorimetry

O=c1c2ccccc2oc2ccccc12 [9H-xanthen-9-one]
Settings	molar entropy, [1] [J/K/mol]	molar heat capacity, [2] [J/K/mol]
4.948 K, Crystal 2	–	0.4157 ± 0.017
5 K, Crystal 2	0.1497 ± 0.017	0.449 ± 0.025
5.884 K, Crystal 2	–	0.7317 ± 0.025
6.774 K, Crystal 2	–	1.131 ± 0.042
7.756 K, Crystal 2	–	1.68 ± 0.058
8.886 K, Crystal 2	–	2.494 ± 0.083
10 K, Crystal 2	1.189 ± 0.025	3.475 ± 0.042
10.01 K, Crystal 2	–	3.492 ± 0.033
11.15 K, Crystal 2	–	4.606 ± 0.042
12.42 K, Crystal 2	–	5.895 ± 0.05
13.82 K, Crystal 2	–	7.574 ± 0.067
15.41 K, Crystal 2	–	9.42 ± 0.075
17.21 K, Crystal 2	–	11.62 ± 0.083
19.14 K, Crystal 2	–	14.03 ± 0.1
20 K, Crystal 2	7.009 ± 0.075	15.07 ± 0.1
21.27 K, Crystal 2	–	16.62 ± 0.11
23.69 K, Crystal 2	–	19.61 ± 0.12
26.45 K, Crystal 2	–	22.93 ± 0.14
29.52 K, Crystal 2	–	26.48 ± 0.15
30 K, Crystal 2	15.42 ± 0.083	27.03 ± 0.075
32.99 K, Crystal 2	–	30.34 ± 0.083
36.76 K, Crystal 2	–	34.3 ± 0.083
40 K, Crystal 2	24.67 ± 0.11	37.43 ± 0.091
40.81 K, Crystal 2	–	38.18 ± 0.091
45.21 K, Crystal 2	–	42.3 ± 0.1
49.99 K, Crystal 2	–	46.39 ± 0.11
50 K, Crystal 2	34.01 ± 0.12	46.4 ± 0.11
55.3 K, Crystal 2	–	50.63 ± 0.12
60 K, Crystal 2	43.17 ± 0.15	54.19 ± 0.12
61.27 K, Crystal 2	–	55.12 ± 0.12
67.42 K, Crystal 2	–	59.55 ± 0.12
70 K, Crystal 2	52.07 ± 0.17	61.32 ± 0.13
74.05 K, Crystal 2	–	64.05 ± 0.13
80 K, Crystal 2	60.7 ± 0.19	68.05 ± 0.14
81.42 K, Crystal 2	–	68.99 ± 0.14
89.28 K, Crystal 2	–	74.02 ± 0.15
90 K, Crystal 2	69.08 ± 0.32	74.5 ± 0.22
97.77 K, Crystal 2	–	79.43 ± 0.22
100 K, Crystal 2	77.26 ± 0.32	80.83 ± 0.22
107.1 K, Crystal 2	–	85.28 ± 0.22
116.86 K, Crystal 2	–	91.41 ± 0.22
120 K, Crystal 2	93.11 ± 0.34	93.39 ± 0.22
126.79 K, Crystal 2	–	97.69 ± 0.23
136.84 K, Crystal 2	–	104.11 ± 0.24
140 K, Crystal 2	108.46 ± 0.37	106.16 ± 0.24
146.73 K, Crystal 2	–	110.54 ± 0.25
156.73 K, Crystal 2	–	117.13 ± 0.25
160 K, Crystal 2	123.49 ± 0.39	119.31 ± 0.26
166.81 K, Crystal 2	–	123.9 ± 0.26
176.93 K, Crystal 2	–	130.77 ± 0.27
180 K, Crystal 2	138.32 ± 0.42	132.89 ± 0.27
187.03 K, Crystal 2	–	137.78 ± 0.27
197.16 K, Crystal 2	–	144.95 ± 0.28
200 K, Crystal 2	153.04 ± 0.44	146.97 ± 0.28
207.33 K, Crystal 2	–	152.23 ± 0.29
217.49 K, Crystal 2	–	159.6 ± 0.3
220 K, Crystal 2	167.73 ± 0.47	161.45 ± 0.3
227.64 K, Crystal 2	–	167.1 ± 0.31
237.79 K, Crystal 2	–	174.59 ± 0.32
240 K, Crystal 2	182.41 ± 0.49	176.23 ± 0.32
247 K, Crystal 2	–	181.5 ± 0.32
257.21 K, Crystal 2	–	189.32 ± 0.33
260 K, Crystal 2	197.12 ± 0.52	191.47 ± 0.34
267.43 K, Crystal 2	–	197.24 ± 0.34
271.49 K, Crystal 2	–	200.45 ± 0.35
277.66 K, Crystal 2	–	205.34 ± 0.35
280 K, Crystal 2	211.88 ± 0.54	207.28 ± 0.36
281.58 K, Crystal 2	–	208.68 ± 0.36
285.78 K, Crystal 2	–	211.94 ± 0.36
287.89 K, Crystal 2	–	213.62 ± 0.37
287.93 K, Crystal 2	–	213.81 ± 0.37
290.92 K, Crystal 2	–	216.28 ± 0.37
293.89 K, Crystal 2	–	218.7 ± 0.37
296.84 K, Crystal 2	–	221.36 ± 0.37
298.15 K, Crystal 2	225.36 ± 0.57	222.59 ± 0.37
299.77 K, Crystal 2	–	224.22 ± 0.37
300 K, Crystal 2	226.74 ± 0.57	224.32 ± 0.37
302.68 K, Crystal 2	–	226.91 ± 0.37
304.5 K, Crystal 1	230.12 ± 0.57	217.42 ± 0.37
304.5 K, Crystal 2	230.12 ± 0.57	228.82 ± 0.38
308.54 K, Crystal 1	–	220.52 ± 0.37
314.52 K, Crystal 1	–	224.74 ± 0.37
319.05 K, Crystal 1	–	228.22 ± 0.38
320 K, Crystal 1	241.19 ± 0.59	228.78 ± 0.38
329.4 K, Crystal 1	–	234.88 ± 0.39
339.75 K, Crystal 1	–	241.96 ± 0.4
340 K, Crystal 1	255.47 ± 0.62	242.13 ± 0.4
350.05 K, Crystal 1	–	248.91 ± 0.41
360 K, Crystal 1	269.69 ± 0.64	255.59 ± 0.41
360.25 K, Crystal 1	–	255.74 ± 0.42
370.5 K, Crystal 1	–	262.7 ± 0.42
380 K, Crystal 1	283.87 ± 0.67	269.01 ± 0.42
380.94 K, Crystal 1	–	269.61 ± 0.42
391.39 K, Crystal 1	–	276.39 ± 0.43
400 K, Crystal 1	298 ± 0.69	281.96 ± 0.44
401.81 K, Crystal 1	–	283.12 ± 0.44
403.54 K, Crystal 1	–	284.25 ± 0.45
411.03 K, Crystal 1	–	289 ± 0.45
412.19 K, Crystal 1	–	289.73 ± 0.45
416.69 K, Crystal 1	–	292.58 ± 0.46
419.61 K, Crystal 1	–	294.44 ± 0.46
420 K, Crystal 1	312.06 ± 0.72	294.67 ± 0.46
422.49 K, Crystal 1	–	296.32 ± 0.46
426.25 K, Crystal 1	–	298.77 ± 0.47
426.89 K, Crystal 1	–	299.05 ± 0.47
428.37 K, Crystal 1	–	300.06 ± 0.47
432.6 K, Crystal 1	–	302.78 ± 0.47
434.54 K, Crystal 1	–	304.24 ± 0.47
436.39 K, Crystal 1	–	305.61 ± 0.47
436.87 K, Crystal 1	–	305.89 ± 0.47
437 K, Crystal 1	–	305.66 ± 0.47
438.34 K, Crystal 1	–	306.66 ± 0.47
440 K, Crystal 1	326.08 ± 0.74	307.81 ± 0.47
441.53 K, Crystal 1	–	308.59 ± 0.47
444.48 K, Crystal 1	–	310.76 ± 0.47
448.8 K, Crystal 1	332.22 ± 0.76	313.35 ± 0.48
448.8 K, Liquid	393.44 ± 0.86	352.72 ± 0.52
456.71 K, Liquid	–	355.95 ± 0.53
456.82 K, Liquid	–	356.07 ± 0.53
456.9 K, Liquid	–	356.08 ± 0.53
460 K, Liquid	402.2 ± 0.88	357.33 ± 0.53
465.07 K, Liquid	–	359.58 ± 0.53
465.9 K, Liquid	–	359.81 ± 0.53
476.6 K, Liquid	–	364.34 ± 0.54
480 K, Liquid	417.58 ± 0.91	365.74 ± 0.54
488.56 K, Liquid	–	369.25 ± 0.55
497.53 K, Liquid	–	372.95 ± 0.55
500 K, Liquid	432.68 ± 0.93	374.07 ± 0.55
500.95 K, Liquid	–	374.47 ± 0.55
512.38 K, Liquid	–	379.19 ± 0.56
520 K, Liquid	447.51 ± 0.96	382.26 ± 0.57
521.08 K, Liquid	–	382.68 ± 0.57

Settings	mass density [kg/m3]
[1], 473 K, Liquid, Pycnometric method	1090 ± 20

[1]
Settings	Triple point temperature [K]
Crystal 1	448.8 ± 0.041
Crystal 2	304.5 ± 0.05

Settings	Molar enthalpy of transition or fusion [kcal/mol]
[3]	6.567 ± 0.00813
